In article PMC10354055, “An optimized Nurr1 agonist provides disease-modifying effects in Parkinson’s disease models” (Nature Communications, 2023):
Values joined by “and” are separate entries in the source; they are usually repeats but may differ in a detail not shown here. Equal entries are not always repeated. Where two headings read alike, the source gives them in different places.

Tests used:
Nurr1-LBD = target: T1, Nurr1-LBD (Mus musculus, UniProt Q06219); test: Luciferase reporter assay, Nurr1-LBD, MN9D cells; assay type: cell-based
T1 construct: transfected with pCMV-fNurr1, pGAL-Nurr1(LBD), pGAL-Nor1(LBD) or pGAL-Nur77(LBD) and reporter construct; expressed in transfected cells; host or cells: SK-N-BE(2)C (human neuroblastoma), N27-A (rat dopaminergic), MN9D (murine dopaminergic)
T1 sequence (Q06219 360-595 limits assumed): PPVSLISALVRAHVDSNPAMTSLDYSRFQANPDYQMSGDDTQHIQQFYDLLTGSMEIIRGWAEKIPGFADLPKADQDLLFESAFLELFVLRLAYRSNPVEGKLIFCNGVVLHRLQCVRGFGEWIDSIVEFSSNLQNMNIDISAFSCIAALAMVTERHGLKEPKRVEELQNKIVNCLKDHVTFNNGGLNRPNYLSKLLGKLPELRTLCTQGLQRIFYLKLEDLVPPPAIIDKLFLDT
Text: Nurr1 transactivity was normalized to β-galactosidase activity.

[1] = BBB permeability assay, plasma and brain LC-MS/MS after oral administration; assay type: in vivo, rat;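 for plasma: oral dosing solution 2 mg/mL in saline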
Description: Final dose of […] 4A7C-301 dissolved in saline was orally administrated to SD rats (male, 7-9 weeks, n = 3 per group). To measure the 4A7C-301 concentration in the brain, rats were fully exsanguinated to remove residual blood prior to brain collection. Brain and blood samples were collected at 0.25, 0.5, 1, 2, 4, 6, 8, and 24 h after administration. A robust LC-MS/MS method was developed with the lower limit of quantification (LLOQ) of 1 ng/mL and 0.5 ng/mL for the quantification of 4A7C-301 in plasma and brain, respectively. The accuracy of all accepted QC samples of 4A7C-301 at low, middle, and high concentration levels met the acceptance criteria. Isolated brains were homogenized in PBS as brain weight (g) to PBS volume (mL) ratio 1:3. The desired serial concentrations of working solutions were achieved by diluting stock solution of analyte with 50% acetonitrile in water solution. 5 µL of working solutions (5, 10, 20, 50, 100, 500, 1000, 5000 ng/mL) were added to 50 μl of male SD rat blank brain homogenate to achieve calibration standards of 0.5 ~ 500 ng/mL (0.5, 1, 2, 5, 10, 50, 100, 500 ng/mL) in a total volume of 55 μl. Four quality control samples at 1.5 ng/mL, 3 ng/mL, 50 ng/mL and 400 ng/mL for brain homogenate were prepared independently of those used for the calibration curves. These QC samples were prepared on the day of analysis in the same way as calibration standards. 55 μl of standards, 55 μl of QC samples and 55 μl of unknown samples (50 µL of brain homogenate with 5 µL of blank solution) were added to 200 μl of acetonitrile containing IS mixture for precipitating protein, respectively. Then the samples were vortexed for 30 seconds. After centrifugation at 4 °C, 4000 x g for 15 min, the supernatant was diluted 5 times with water. 25 µl of diluted supernatant was injected into the LC-MS/MS system (AB API 5500 + LC-MS/MS instruments (Serial No. EX224682008)) for quantitative analysis. To measure the 4A7C-301 concentration in the plasma, serum samples were obtained from the collected blood and analyzed by LC-MS/MS system as indicated above.

MPTP-induced male mice = test: IHC/stereology of TH+ fibers, TH+ DA neurons and NeuN+ neurons, MPTP-induced mice; assay type: in vivo, mouse
Description: MPTP (Sigma-Aldrich) was intraperitoneally (i.p.) injected (30 mg/kg) for 5 days (Day 1-5). […] To test dyskinetic involuntary behavior, an L-DOPA injected group was included, which received 50 mg/kg of L-DOPA and 15 mg/kg of benserazide (Sigma-Aldrich) (i.p.) for 16 days (Day 1–16). All compounds were administered 6 h post-MPTP injection to avoid any effect of compounds on the MPTP metabolism in the brain. Motor and non-motor related behavior tests were performed on the following days as described in Fig. 4a in an assessor- and observer-blinded fashion. Pre-training and baseline setup for motor-related behaviors were performed 3 days prior to the injections. Mice were sacrificed and subjected to immunohistochemistry. Mice were housed at the Animal Care Facilities of McLean Hospital under a 12-h light/12-h dark cycle, ambient temperature and humidity. Animals were handled in accordance with McLean Hospital’s Institutional Animal Care and Use Committee (Protocol #: 2015N000002) and followed National Institutes of Health guidelines.
Images were acquired using a KEYENCE microscope and quantified as the number or optical density of immunoreactive cells using ImageJ software.
The numbers of TH^+ DA neurons, NeuN^+ neurons, pS129 αSyn^+ cells in the SN and Iba-1^+ microglia in the SN and striatum were stereologically counted in six coronal sections (30 µm thickness) taken every 6th section (180 µm intervals) for each brain. The boundaries of the SN and striatum were delimited at low magnification (4X) to estimate each total area. Immunoreactive cells were counted with images taken at high magnification (×40) by a single blinded investigator. The group mean of the total number of immunoreactive cells from each brain was transformed as percentage of the number in the control group (%). For AAV-αSyn-induced mice, the group mean of the total number of cells in the ipsilateral side was transformed as a percentage of that observed in the contralateral side.

Nor1 = target: T2, Nor1 (Homo sapiens, UniProt Q92570); test: Luciferase reporter assay, Nor1 LBD, SK-N-BE(2)C cells; assay type: cell-based; details: Fig. 1f; CQ 100 µM, 4A7C-301 20 µM, PGA1 10 µM
T2 construct: using LBD of NR4A subfamily members in SK-N-BE(2)C cells; expressed in transfected cells; host or cells: SK-N-BE(2)C
T2 sequence (Q92570 394-623 limits assumed): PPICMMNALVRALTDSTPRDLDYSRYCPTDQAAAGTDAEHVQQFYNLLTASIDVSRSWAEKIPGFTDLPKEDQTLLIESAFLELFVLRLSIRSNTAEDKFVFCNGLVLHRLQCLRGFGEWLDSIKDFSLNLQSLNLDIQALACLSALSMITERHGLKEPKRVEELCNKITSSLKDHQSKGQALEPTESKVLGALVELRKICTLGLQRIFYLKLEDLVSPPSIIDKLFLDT

[2] = time 00:15:00, individual replicates
[3] = time 0:30:00, individual replicates
[4] = time 1:00:00, individual replicates
[5] = time 2:00:00, individual replicates
[6] = time 4:00:00, individual replicates
[7] = time 6:00:00, individual replicates
[8] = time 8:00:00, individual replicates
[9] = time 24:00:00, individual replicates

## CCN1CCN(c2cc(N3CCN(CC)CC3)nc(NCCNc3ccnc4cc(Cl)ccc34)n2)CC1 [4A7C-301, N^1-(4,6-bis(4-ethylpiperazin-1-yl)pyrimidin-2-yl)-N^2-(7-chloroquinolin-4-yl)ethane-1,2-diamine]
Nurr1-LBD; Fig. S3a, 0.001 µM
  Luciferase activity (fold): 1.103 fold and 1.1109 fold and 1.11 fold
Nurr1-LBD; Fig. S3a, 0.01 µM
  Luciferase activity (fold): 2.094 fold and 2.1057 fold and 1.929 fold
Nurr1-LBD; Fig. S3a, 0.1 µM
  Luciferase activity (fold): 4.339 fold and 4.261 fold and 4.17 fold
Nurr1-LBD; Fig. S3a, 1 µM
  Luciferase activity (fold): 7.077 fold and 6.781 fold and 6.645 fold
Nurr1-LBD; Fig. S3a, 10 µM
  Luciferase activity (fold): 6.849 fold and 6.689 fold and 7.128 fold
Nurr1-LBD; Fig. S1d, conc. 1 µM, replicates
  Luciferase activity (fold): 6.4567 fold and 6.799 fold and 6.563 fold
Nurr1-LBD; Fig. S1d, conc. 10 µM, replicates
  Luciferase activity (fold): 6.943 fold and 6.5332 fold and 6.663 fold
Nurr1-LBD; Fig. S1d, conc. 10-1 µM, replicates
  Luciferase activity (fold): 3.61 fold and 3.7661 fold and 3.609 fold
Nurr1-LBD; Fig. S1d, conc. 10-2 µM, replicates
  Luciferase activity (fold): 1.993 fold and 2.235 fold and 2.074 fold
Nurr1-LBD; Fig. S1d, conc. 10-3 µM, replicates
  Luciferase activity (fold): 1.142 fold and 1.201 fold and 1.251 fold
Nurr1-LBD; MN9D cells, Supplementary Fig. 3a,b
  potency to activate Nurr1 relative to CQ: approximately 50 fold
[1]; SD rats, oral, 20 mg/kg, plasma and brain homogenates
  brain permeability (in words): penetrated into the brain well
[1]; male, SD, rat, brain, oral, 2 mg/mL, time 00:15:00, individual replicates, read-out: Brain
  concentration at […]: 0 ng/g
[1]; male, SD, rat, brain, oral, 2 mg/mL, time 0:30:00, individual replicates, read-out: Brain
  concentration at 0.5 h: 0 ng/g
[1]; male, SD, rat, brain, oral, 2 mg/mL, time 8:00:00, individual replicates
  concentration at 8 h: 28.7 ng/g
[1]; male, SD, rat, plasma, oral, 2 mg/mL, time 00:15:00, individual replicates, read-out: Plasma
  concentration at […]: 0 ng/mL
[1]; male, SD, rat, plasma, oral, 2 mg/mL, time 0:30:00, individual replicates, read-out: Plasma
  concentration at 0.5 h: 0 ng/mL
[1]; [2]
  Brain: 0 ng/g
  Plasma: 0 ng/mL
[1]; [3]
  Brain: 0 ng/g
  Plasma: 0 ng/mL
[1]; [4]
  B/P ratio: 0.033 and 0.167 and 0.126
  Brain: 3.39 ng/g and 9.12 ng/g and 2.65 ng/g
  Plasma: 20.3 ng/mL and 72.3 ng/mL and 80.8 ng/mL
[1]; [5]
  B/P ratio: 0.395 and 0.077 and 0.505
  Brain: 7.24 ng/g and 13.5 ng/g and 6 ng/g
  Plasma: 94 ng/mL and 26.7 ng/mL and 15.2 ng/mL
[1]; [6]
  B/P ratio: 0.137 and 0.126 and 1.648
  Brain: 27.2 ng/g and 13.5 ng/g and 7.16 ng/g
  Plasma: 216 ng/mL and 8.18 ng/mL and 52.2 ng/mL
[1]; [7]
  B/P ratio: 0.074 and 0.166 and 2.055
  Brain: 19.9 ng/g and 24 ng/g and 4.36 ng/g
  Plasma: 120 ng/mL and 11.7 ng/mL and 58.6 ng/mL
[1]; [8]
  B/P ratio: 0.112 and 3.845 and 0.261
  Brain: 16.8 ng/g and 20.2 ng/g
  Plasma: 7.47 ng/mL and 64.3 ng/mL and 180 ng/mL
[1]; [9]
  B/P ratio: 10.245 and 0.957 and 6.289
  Brain: 61.6 ng/g and 20 ng/g and 36 ng/g
  Plasma: 64.4 ng/mL and 3.18 ng/mL and 3.51 ng/mL
MPTP-induced male mice; Figure 4j, MPTP-induced mice, individual animal values
  TH+ neurons in SNpc (% of control): 63.18 % of control and 108.74 % of control and 134.92 % of control and 132.65 % of control and 112.51 % of control and 66.45 % of control and 53.87 % of control
MPTP-induced male mice; Figure 4k, MPTP-induced mice, individual animal values
  NeuN+ neurons in SNpc (% of control): 85.48 % of control and 97.85 % of control and 98.38 % of control and 115.18 % of control
MPTP-induced male mice; Figure 4h, MPTP-induced mice, individual animal values
  TH fiber density in STR (% of control): 116.18 % of control and 48.63 % of control and 93.47 % of control and 82.29 % of control and 106.49 % of control and 100.23 % of control and 91.26 % of control
MPTP-induced male mice; compared to MPTP only group
  TH+ fibers in STR, TH+ DA neurons and NeuN+ neurons in SN (in words): significantly retained
Nor1
  Luciferase activity (fold), Nor1: 3.28 fold and 3.108 fold and 3.492 fold
